Assays:
Type in all cases: binding
[1] = target: T1, transferrin iron complex (holo-Transferrin (hTf), human) (Homo sapiens, UniProt P02787); assay: Evaluation D: capture of iron ions from transferrin iron complex; conditions: for hTf residual ratio (%): relative to non-treated holo-Transferrin, 24 hours with 5 mM chelator solution; for Absorbance (466 nm): transferrin fraction after 24 hours at room temperature with 5 mM chelator solution and 50 μM transferrin iron complex solution, ultrafiltration
T1 construct: purchased Sigma Corporation T0665-50MG
Method: Evaluation was carried out by the following evaluation method D with respect to properties whether iron ions were captured from the transferrin iron complex (transferrin iron complex in which transferrin is chelated to iron ions) by the iron chelating agent according to Examples 1 to 2.
The iron chelating agent according to Example 1 was dissolved in 1×D-PBS (pH 7.2) to prepare an iron chelating agent solution (“Fe-Ser•Na (5 mM)”) having an iron chelating agent concentration of 5 mM, in the same manner as the preparation method of the iron chelating agent in evaluation A of the iron chelating agent.
Further, as described above, the iron chelating agent according to Example 2 was dissolved in 1×D-PBS (pH 7.2) to prepare an iron chelating agent solution (“Fe-His•Na (5 mM)”) having an iron chelating agent concentration of 5 mM.
Further, 800 mM HEDTA solution as the iron chelating agent according to Comparative Example 3 was prepared as described above. 13.76 g of crystals were taken in a 50 mL conical tube, 25 mL of Milli-Q water was added and dissolution performed, and then adjustment to pH 7.0 was performed using concentrated hydrochloric acid (35 to 37%) and the total amount was adjusted to 50 mL using Milli-Q water (HEDTA solution (800 mM)). HEDTA solution (“HEDTA solution (5 mM)”) having a concentration of HEDTA of 5 mM was prepared using 1×D-PBS (pH 7.2).
Further, 800 mM solution (pH 7.0) was prepared by using NTA2Na and NTA3Na as iron chelating agents according to Comparative Example 1 as described above. 9.4 g of NTA2Na was dissolved in Milli-Q water and the total volume was made up to 50 mL (referred to as “NTA2Na solution (800 mM)” in some cases). Meanwhile, 11.0 g of NTA3Na was dissolved in Milli-Q water and the total volume was made up to 50 mL (“NTA3Na solution (800 mM)”). NTA2Na solution (800 mM) (pH 6.3) and NTA3Na solution (800 mM) (pH 11.3) were mixed to produce 800 mM of NTA solution with pH 7.0. NTA solution (“NTA solution (5 mM)”) having a concentration of NTA of 5 mM was prepared by using 1×D-PBS (pH 7.2).
A commercially available transferrin iron complex (holo-Transferrin (hTf), human, Code T0665-50MG, Lot 095K1633, manufactured by Sigma Corporation) was dissolved in 1×D-PBS (pH 7.2) to prepare a transferrin iron complex solution having a concentration of iron ions (iron ions which are transferrin-bound iron) of 50 μM.
50 μl of 50 μM transferrin iron complex solution was taken in a 1.5 mL sample tube, 50 μl of each of iron chelating agent solutions (Fe-Ser•Na (5 mM), Fe-His•Na (5 mM), NTA solution (5 mM), HEDTA solution (5 mM)) was added thereto and left at room temperature under light shielding for 24 hours. 50 μl of various reaction liquids was taken in a centrifugal ultrafiltration unit (trade name “Amicon Ultra-4 Ultracel-30k” UFC8030, manufactured by Millipore Corporation), and 450 μl of 1×D-PBS (pH 7.2) was added thereto, centrifugation was carried out at 3,500 rpm and 20° C. for 30 minutes, and transferrin and each low molecular chelating agents were separated (first time). After centrifugation, the filtrate was discarded. 450 μl of 1×D-PBS (pH 7.2) was added again to the solution (about 50 μl) containing transferrin concentrated in a unit and centrifugation was carried out with the same conditions (second time). A solution containing transferrin concentrated in a unit was recovered after the second time of centrifugation and the absorbance at the wavelength of 466 nm was measured using a spectrophotometer (trade name “Spectrophotometer DU 640”, manufactured by Beckman Coulter).

[2] = system: iron citrate complex ammonium salt (FAC); assay: Evaluation C: chelating ability in MOPS/acetonitrile solvent, FAC solution
Method: (§1) Evaluation was carried out by the following evaluation method C as to whether or not the iron chelating agent according to Examples 1 to 3 had chelating ability with iron in 3-morpholinopropanesulfonic acid (C7H15NO4S;MOPS) and acetonitrile solution as solvents used in high performance liquid chromatography (HPLC).
(§2) 2.09 g of morpholinopropanesulfonic acid (C7H15NO4S; FW=209.26, Code 341-01801, Lot PX013, manufactured by Dojindo/Wako Corporation) was added to a 100 mL Erlenmeyer flask, 80 mL of ultrapure water (pure water produced by an ultrapure water production system manufactured by Millipore Corporation (Milli-Q); “Milli-Q water”) was added thereto and dissolved [pH 4.15 (24.4° C.)]. To this solution, 1N sodium hydroxide solution (1 mol/1 sodium hydroxide solution, Code 192-02175, Lot SEP7274, manufactured by Wako Pure Chemicals Industries) was added in 100 μl portions, the pH was adjusted to 7.0 and further Milli-Q water was made up to 100 mL in a measuring cylinder, whereby 100 mL of MOPS solution (pH 6.99) was prepared.
(§3) An iron chelating agent solution having an iron chelating agent concentration of 50 mM was prepared with respect to the iron chelating agent according to Examples 1 to 3, in the same manner as the preparation method of the iron chelating solution in evaluation A of the iron chelating agent.
(§4) Further, 100 mM of MOPS solution (pH6.99) prepared by the preparation method of the MOPS solution was used.
(§5) Furthermore, a stock solution of acetonitrile (C2H3N, FW=41.05, Code 347-06641, Lot WPI96, manufactured by Dojindo/Wako corporation) was used.
(§6) 13.8 mL of Milli-Q water was taken in a 50 mL conical tube, 1.2 mL of each of the iron chelating agent solutions (Fe-Ser•Na (50 mM), Fe-His•Na (50 mM), Fe-Glu•Na (50 mM)) according to the iron chelating agents of Examples 1 to 3 was added, 1.0 mL of 100 mM MOPS solution was added thereto, and a further 4.0 mL of acetonitrile solution was added to produce an iron chelating solution using MOPS. The iron chelating agent solutions using MOPS and iron chelating agent according to Examples 1 to 3 were defined respectively as Fe-Ser•Na (MOPS solution)” (iron chelating agent according to
(§7) Example 1), “Fe-His•Na (MOPS solution)” (iron chelating agent according to Example 2), and “Fe-Glu•Na(MOPS solution)” (iron chelating agent according to Example 3).
An iron citrate complex ammonium salt solution (FAC solution (20 mM)) having a concentration of iron ions of 20 mM and an iron citrate complex ammonium salt solution (FAC solution (2 mM)) having a concentration of iron ions of 2 mM were prepared, in the same manner as the preparation method of the iron citrate complex ammonium solution in evaluation A of the iron chelating agent.
FAC solution (20 mM) was added to and mixed with each of the iron chelating agent solutions [Fe-Ser•Na (MOPS solution), Fe-His•Na (MOPS solution), Fe-Glu•Na (MOPS solution)] using MOPS.

[3] = system: iron nitrilotriacetate complex (Fe-NTA); assay: Evaluation C: chelating ability in MOPS/acetonitrile solvent, Fe-NTA solution
Method: as §1, §2, §3, §4, §5, §6, §7
Further, iron nitrilotriacetate complex solution (“Fe-NTA solution (20 mM)”) having a concentration of iron ions of 20 mM and iron nitrilotriacetate complex solution (“Fe-NTA solution (2 mM)”) having a concentration of iron ions of 2 mM were prepared, in the same manner as the preparation method of iron nitrilotriacetate complex solution in evaluation B of the iron chelating agent.
Further, Fe-NTA solution (20 mM) was added to and mixed with each of the iron chelating agent solutions [Fe-Ser•Na (MOPS solution), Fe-His•Na (MOPS solution), Fe-Glu•Na (MOPS solution)] using MOPS. […] Further, Fe-NTA solution (2 mM) was added and mixed thereto as described above.

[4] = FAC solution (2 mM) added to chelating agent MOPS solution (MOPS, acetonitrile)
[5] = FAC solution (20 mM) added to chelating agent MOPS solution (MOPS, acetonitrile)
[6] = Fe-NTA solution (2 mM) added to chelating agent MOPS solution (MOPS, acetonitrile)
[7] = Fe-NTA solution (20 mM) added to chelating agent MOPS solution (MOPS, acetonitrile)

T1 sequence (P02787 20-698, one chain of several): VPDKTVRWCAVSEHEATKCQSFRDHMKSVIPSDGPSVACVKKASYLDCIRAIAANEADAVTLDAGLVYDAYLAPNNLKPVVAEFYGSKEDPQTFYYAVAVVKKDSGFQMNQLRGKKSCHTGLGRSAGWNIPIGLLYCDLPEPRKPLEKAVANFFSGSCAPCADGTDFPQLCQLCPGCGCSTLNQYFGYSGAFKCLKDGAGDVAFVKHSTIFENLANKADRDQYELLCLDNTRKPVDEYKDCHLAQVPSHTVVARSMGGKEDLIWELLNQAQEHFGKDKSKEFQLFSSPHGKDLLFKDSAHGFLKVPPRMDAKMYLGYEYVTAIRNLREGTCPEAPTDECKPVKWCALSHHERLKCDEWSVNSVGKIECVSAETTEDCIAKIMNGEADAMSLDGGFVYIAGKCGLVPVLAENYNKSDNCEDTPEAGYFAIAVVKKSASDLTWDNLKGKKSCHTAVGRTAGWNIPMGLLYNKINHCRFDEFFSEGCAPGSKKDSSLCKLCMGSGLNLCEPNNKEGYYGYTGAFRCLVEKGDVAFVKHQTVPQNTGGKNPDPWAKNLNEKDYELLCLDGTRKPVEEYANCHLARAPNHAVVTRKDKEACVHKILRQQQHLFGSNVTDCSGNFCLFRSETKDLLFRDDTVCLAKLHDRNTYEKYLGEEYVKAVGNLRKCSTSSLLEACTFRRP

Compound | hTf residual ratio (%) [1] [%] | Absorbance (466 nm) [1] | colour of the solution after mixing [2, 4] | colour of the solution after mixing [2, 5] | colour of the solution after mixing [3, 6] | colour of the solution after mixing [3, 7]
O=C(O)CN(CC(=O)O)CC(=O)O [Comparative Example 1, nitrilotriacetic acid, reference compound] | 79.59 | 0.0589 | – | – | – | –
O=C(O)C(Cc1c[nH]cn1)NCc1ccccc1O (centres unmarked) [Example 2, o-[(1-carboxy-2-(1H-imidazol-4-yl)ethyl)-amino-methyl]-phenol] | 83.78 | 0.0620 | dark brown-colored | dark brown-colored | dark brown-colored | dark brown-colored
NC(=O)CCC(NCc1ccccc1O)C(=O)O (centres unmarked) [Example 3, o-[(1-carboxy-2-carbamoylmethylethyl)-amino-methyl]-phenol] | – | – | dark brown-colored | dark brown-colored | dark brown-colored | dark brown-colored
N-(2-hydroxyethyl)-ethylenediamine triacetic acid [Comparative Example 3, reference compound] | 69.59 | 0.0515 | – | – | – | –

Source: patent US8623661B2, “Iron chelating agent, method for producing same, method for determining amount of iron ions and method for trapping iron ions” (National University Corporation Asahikawa Medical College, priority 2008, dated 2014)
